The record followed here is PubChem BioAssay AID652253 (Vanderbilt Specialized Chemistry Center, 2013).

Calls of active or inactive are those of the source. How the calls were made is not given here.

For one assay, the target named is Proteinase-activated receptor 4 (Homo sapiens) (UniProt Q96RI0). The assay is described as follows: PAR4 antagonist concentration-response, dose response, cell-based, CRC (AID 652253). The following applies: cells, PAR4-AP induced response.
Sequence of Proteinase-activated receptor 4 (Homo sapiens) (Q96RI0 whole entry, looked up): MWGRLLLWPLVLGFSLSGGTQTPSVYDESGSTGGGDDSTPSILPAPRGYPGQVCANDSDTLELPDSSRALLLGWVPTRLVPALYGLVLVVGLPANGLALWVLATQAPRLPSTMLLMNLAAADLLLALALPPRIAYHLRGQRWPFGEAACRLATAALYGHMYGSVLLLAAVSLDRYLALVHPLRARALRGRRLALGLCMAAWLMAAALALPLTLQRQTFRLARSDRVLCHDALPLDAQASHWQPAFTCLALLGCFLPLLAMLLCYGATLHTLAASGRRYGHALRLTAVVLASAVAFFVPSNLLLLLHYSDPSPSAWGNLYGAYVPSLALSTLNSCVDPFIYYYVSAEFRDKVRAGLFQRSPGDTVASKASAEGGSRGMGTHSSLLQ
What is called IC50 is the concentration that gives 50% inhibition. Consider `COc1ccc(-c2cn(Cc3cccc(Cl)c3)c3ccccc23)cn1`, for which the IC50 result is “inactive”.
The same measure, in the same setting: the same measure for `COc1ccc(-c2cn(Cc3cccc(Br)c3)c3ccccc23)cn1`: “inactive”; for `COc1ccc(-c2cn(Cc3cccc(F)c3)c3ccccc23)cn1`: “inactive”; for `COc1ccc(COc2ccc(C(=O)NCCC(C)(C)C)cc2)cc1`: 139 nM.
For the compound `COc1ccc(-c2cn(Cc3ccccc3)c3ccccc23)cn1`, the IC50 result is “inactive”.

The assay is the same for the next values; noted with them: cells, PAR4-AP induced response, at 10 µM (top of the series).
For `COc1ccc(-c2cn(Cc3ccccc3)c3ccccc23)cc1`, the “% PAR4-AP response remaining” value is “inactive”.
The same measure, in the same setting: the same measure for `Fc1ccc(-c2cn(Cc3ccccc3)c3ccccc23)cn1`: “inactive”; for `COc1ccc(-c2cn(Cc3cccc(S(C)(=O)=O)c3)c3ccccc23)cn1`: “inactive”.
